# Ends that are not written are not given here.
# Key:
# Format in all cases: cell-based
# human sperm [1] = experiment: Sperm motion analysis (computerized semen analyzer); details: for Effect on motility characteristics (velocity, ALH, beat frequency) / Effect on the percentage of motile sperm cells: peptide 0.5 micrograms per hundred microliters; for ALH (amplitude of lateral head displacement) (Mean ± S.D.) / Beat Frequency (Mean ± S.D.) / Linearity (Mean ± S.D.) / Percent Motility / Velocity (Mean ± S.D.): thymosins 0.5 μg/100 μl, 5 to 6 hours
# Description: After incubation with thymosin peptides or their antibodies for 5 to 6 hours as described above, an aliquot (7 microliters) of the sperm suspension was placed into a Makler chamber (Sefi Medical Instruments, Israel) and the sperm motion characteristics measured using a computerized semen analyzer (Cell Soft Cryo Resources, N.Y.). The parameter settings were 30 frames analyzed at an image frequency of 30 Hz, 3 frames minimum sampling for motility, 15 frames minimum sampling for both velocity and amplitude of the lateral head movement ("ALH") measurements, 10 micrometers per second threshold velocity, minimum linearity of 2.5 for ALH measurements and a cell size range of 4-40 pixels with a magnification calibration of 0.688 micrometers per pixel.
# human sperm [2] = experiment: Assessment of acrosomal status (triple stain) of human sperm; details: for Effect on capacitation and acrosome reaction of human sperm cells: 0.5 micrograms/microliter, 5-6 hours, with or without ionophore; for Acrosome reacted sperm (%) (Mean ± SD): thymosins 0.5 μg/100 μl
# Description: Motile sperm were collected from fertile men by the swim up procedure as set forth in Naz et al., referenced above. Good quality sperm samples, i.e., (5×10^6 motile sperm per milliliter), greater than 75% motility, +3 to +4 forward progression on a scale of 0 to +5 were incubated with Tα1 or Tβ4 or anti-Tα1 antibodies or anti-Tβ4 antibodies. The controls were treated with the same amount of normal rabbit serum, anti-KLH antibodies, anti-HGP 30 antibodies or PBS-BSA as previously described. After incubation, the spermatozoa were centrifuged, washed in PBS and divided into two aliquots. One aliquot was induced to acrosome react with calcium ionophore (Calcium ionophore A23187 (Sigma)) and incubated with sperm suspension for one hour. The other aliquot was allowed to spontaneously acrosome react without treating with calcium ionophore. Calcium ionophore treatment was carried out to induce acrosome reaction of the capacitated sperm. The acrosomal status was assessed using the triple stain procedure described by Jager et al., Arch. Androl., 12:53-58 (1984). The sperm were washed twice in PBS and then incubated at 37° C. for fifteen minutes with 2% Trypan blue (Sigma 1:1 v/v) in PBS. After incubation, the sperm were washed twice, fixed in three percent glutaraldehyde, 0.1M cacodylate buffer for sixty minutes and then twice washed again in PBS. A drop of this suspension was placed on a glass slide and allowed to air dry overnight. The dried slide was stained with 0.8% Bismark Brown (Sigma) in deionized water (pH 1.8 with 2N HCl), rinsed in deionized water and stained for 45 minutes at room temperature in 0.8% Rose Bengal (Sigma) in 0.1M cacodylate buffer at pH 6.0. The slides were again washed in deionized water, dehydrated in an alcohol series, cleared in xylene and mounted with permount and a coverslip. A total of 200-500 sperm per sample were evaluated and recorded as either alive or dead. The alive sperm were further evaluated as acrosome-intact or acrosome-non-intact (reacted) sperm. The experiments were repeated 3-5 times using sperm of at least three different fertile donors.
# human sperm [3] = experiment: Assessment of acrosin distribution (BAPNA acrosin activity in cells and supernatant); details: for Effect on acrosin distribution vs PBS-BSA treated sperm: peptide 0.5 micrograms/100 microliters, with or without ionophore; for Acrosin activity, cells (Mean ± SD) / Acrosin activity, supernatant (Mean ± SD): thymosins 0.5 μg/100 μl
# Description: After incubation with the thymosin peptides or the anti-thymosin antibodies or control antibodies or PBS-BSA and with or without treating with calcium ionophore A23187 for one hour as described above, the sperm cells were centrifuged and the acrosin activity determined in the supernatant and cells by the method of Kennedy et al., J. Androl., 10:21-27 (1989). Ninety microliters of the supernatant or the pelleted sperm cells suspended in 90 microliters of PBS were mixed with one milliliter of the reaction mixture. The reaction mixture comprises one milligram per milliliter of N-benzoyl-dl-arginine-P-nitraniline (BAPNA) hydrochloride in 0.055M HEPES buffer, 0.055M NaCl, 10% v/v (dimethylsulfoxide), 0.1% v/v TRITON X-100 (t-Octylphenoxypolyethoxyethanol). The solution then was incubated for three hours at room temperature. The reaction was stopped by the addition of 100 microliters of 0.5M benzamidine and the absorbance measured at 405 nanometers using a Beckman spectrophotometer. Acrosin activity was expressed as μIU/10^6 spermatozoa. The daily variability of the assay was normalized using a cryopreserved partially-purified human acrosin extract. The preparation of such extracts is taught by Naz et al., J. Cell Sci., 102:487-494 (1992).
# human sperm [4] = experiment: Human sperm penetration assay of zona-free hamster oocytes (SPA); details: for Ova penetrated, % of control (mean ± SD): 5-6 hours, sperm of fertile men
# Description: Human sperm penetration assay of zona-free-hamster oocytes (SPA) was performed as described in Naz et al., J. Cell Sci., 102:487-494 (1992). Superovulation was induced in adult female golden hamsters by intraperitoneal injections of 30 IU eCG (pregnant mare serum gonadotropin)(Sigma Chemical Co., St. Louis, Mo.) on day 1 of the cycle. After 55-72 hours, 20 IU hCG (human chorionic gonadotropin) (Sigma) were administered intraperitoneally. 15-17 hours later the animals were sacrificed and the mature unfertilized ova were collected from the oviducts. The ova were separated from the surrounding cumulus cells by incubation with 0.2% hyaluronidase in Biggers, Witten and Wittingham (BWW) medium and from the zonae pellucida by treatment with 0.1% pancreatic trypsin in BWW. The zona-free ova were twice washed in BWW and placed in the center of a tissue culture dish.
# Semen from a fertile person was liquified for 15-30 minutes at 37° C. and the swim-up sperm population was collected. Collection techniques are described in Naz et al., J. Cell Sci., 99:157-165 (1991). The sperm cells from the swim-up were washed with BWW supplemented with 1% BSA (Sigma Chemical Co.) adjusted to 5-10×10^6 motile sperm per milliliter and then allowed to incubate for 5-6 hours at 37° C. ([…]) or polyclonal antisera elicited in response to those immunogens (10-20 microliters of antiserum/100 microliters of sperm suspension) or the same amount of control antibodies (normal rabbit serum, anti-KLH antibodies or anti-HGP-30 antibodies) or the equivalent volume of PBS containing 0.5% BSA (PBS/BSA). After incubation the sperm were washed to remove the unreacted thymosin or anti-thymosin antibody and co-incubated with the zona-denuded hamster oocytes (30-50 eggs/treatment in each assay) for three to four hours. The oocytes were removed, thoroughly washed, fixed with 3% […] and stained with acetocarmine solution. Sperm penetration was determined by the presence of a swollen spermhead with a discernable tail in the cytoplasm of the ovum. Motility of sperm before and after incubation with ova was recorded. The assays were repeated at least three to eight times using different fertile donors and each sample tested with at least 82-480 oocytes.
# The percentage of ova penetrated was calculated according to the following formula; [formula]
# [5] = peptide 0.1 μg/100 μl sperm suspension
# [6] = peptide 0.5 μg/100 μl sperm suspension
# [7] = peptide 2.0 μg/100 μl sperm suspension
# [8] = peptide 10.0 μg/100 μl sperm suspension
Substance,"Effect on motility characteristics (velocity, ALH, beat frequency) (human sperm [1])",Effect on the percentage of motile sperm cells (human sperm [1]),ALH (amplitude of lateral head displacement) (Mean ± S.D.) (human sperm [1]),Beat Frequency (Mean ± S.D.) (human sperm [1]),Linearity (Mean ± S.D.) (human sperm [1]),Percent Motility (human sperm [1]),Velocity (Mean ± S.D.) (human sperm [1]),Effect on capacitation and acrosome reaction of human sperm cells (human sperm [2]),Acrosome reacted sperm (%) (Mean ± SD) (human sperm [2]; with ionophore treatment),Acrosome reacted sperm (%) (Mean ± SD) (human sperm [2]; without ionophore treatment),Effect on acrosin distribution vs PBS-BSA treated sperm (human sperm [3]),"Acrosin activity, cells (Mean ± SD) (human sperm [3]; with ionophore treatment)","Acrosin activity, supernatant (Mean ± SD) (human sperm [3]; with ionophore treatment)","Acrosin activity, cells (Mean ± SD) (human sperm [3]; without ionophore treatment)","Acrosin activity, supernatant (Mean ± SD) (human sperm [3]; without ionophore treatment)","Ova penetrated, % of control (mean ± SD) (human sperm [4]; [5])","Ova penetrated, % of control (mean ± SD) (human sperm [4]; [6])","Ova penetrated, % of control (mean ± SD) (human sperm [4]; [7])","Ova penetrated, % of control (mean ± SD) (human sperm [4]; [8])",also measured
"thymosin-α1 (SDAAVDTSSEITTKDLKEKKEVVEEAEN; not fully specified; ends and bridges not checked; UniProt P06454 2-29, looked up) [Tα1, Thymus factor peptide; available from Alpha 1 Biomedicals]","significantly affected the velocity, ALH and beat frequency",No effect,4.0 ± 0.3,13.7 ± 0.6,3.9 ± 0.6,80.3 ± 6.2%,61.1 ± 3.0,significantly enhanced capacitation and acrosome reaction,69.2 ± 3.6%,18.5 ± 3.5%,significantly higher quantity of acrosin concentration released in the supernatant and a lower quantity of acrosin concentration in the sperm cells,30.6 ± 7.2 μIU/10^6 spermatozoa,68.2 ± 16.6 μIU/10^6 spermatozoa,64.5 ± 6.4 μIU/10^6 spermatozoa,27.5 ± 13.4 μIU/10^6 spermatozoa,251.0 ± 36.3%,204.0 ± 13.9%,100.5 ± 0.7%,102.2 ± 18.9%,"Fold increase of percentage of ova penetrated compared to PBS-BSA-treated control sperm (human sperm [4]; 0.05 to 0.5 μg Tα1/100 μl sperm suspension, P<0.001): up to 2.6 fold; Ova penetrated, % of control (mean ± SD) (human sperm [4]; peptide 0.01 μg/100 μl sperm suspension): 120.3 ± 11.6%; Ova penetrated, % of control (mean ± SD) (human sperm [4]; peptide 0.05 μg/100 μl sperm suspension): 268.2 ± 26.4%"
thymosin-β4 [Tβ4],Neither Tβ4 peptide nor the control antibodies affected any motility characteristics,No effect,3.7 ± 0.4,13.1 ± 0.3,4.0 ± 0.6,76.0 ± 4.3%,58.5 ± 2.6,did not exhibit a significant effect,61.5 ± 4.8%,14.5 ± 2.1%,no significant effect,38.5 ± 7.1 μIU/10^6 spermatozoa,52.8 ± 16.2 μIU/10^6 spermatozoa,76.5 ± 9.1 μIU/10^6 spermatozoa,21.0 ± 14.4 μIU/10^6 spermatozoa,102.7 ± 6.5%,99.7 ± 10.1%,61.8 ± 27.9%,31.5 ± 12.2%,

# Reference: US5585234A, “Treatment of infertile sperm in vitro with thymosin α1 to enhance penetration of mammalian ova” (The George Washington University Medical Center, priority 1994, dated 1996)
